Test results taken from patent publication US3981868A.
≈ marks a conversion by molar mass, not a printed value.

Assays:
gerbil ascending colon = assay: contraction of gerbil colon by dl-PGE1; settings: final concentration of 200 ng./ml.; preliminary tests
Experimental: Sections of ascending colon, approximately 20 mm. long, from mature male gerbils (Meriones unguiculatus) weighing 70-80 g. were mounted in DeJalon's solution (154 mM NaCl; 5.95 mM NAHCO3 ; 278 mM glucose, 5.64 mM KCl and .27 mM Cacl2 in 20 ml. tissue baths) (L. and K Glass Co., Lynnhurst, N.J.). The medium was continually gassed with a mixture of 95% 02 -5% CO2 and maintained at 37°C. The tissues were suspended via silk suture threads between a glass hook at the base and a model FT .03C force displacement transducer (Grass Instrument, Quincy, Mass.). Contractions were recorded on a Poly-Viso polyraph (Sanborn Co., Cambridge, Mass.
After mounting, tissues were allowed to stabilize 15-20 minutes during which time adjustments were made to establish and maintain a 0.5 g. resting tension on the muscle. Thereafter, test cycles of 3-5 minutes were begun and consisted of a 1 minute exposure to the potential antagonist, if called for, followed by a 1 minute exposure to the prostaglandin agonist, a 15-30 sec. washout and a recovery period of 2-2.5 minutes. […] During the washout period, the tissue was rinsed with a measured amount equalling 8 volumes of medium.
Following stabilization, muscles were exposed 2 to 3 times to this concentration of dl-PGE1 until a consistent response was recorded. […]

diastolic blood pressure = assay: hypotensive activity in anesthetized rats (minimal dose lowering diastolic blood pressure about 10 mm.); type: in vivo, Male Wistar strain rats; settings: Rattus norvegicus; intravenous; dose producing a decrease of about 10 mm. in diastolic blood pressure
Experimental: This procedure is a modification of the technique described by Pike et al., Prostaglandins, Nobel Symposium 2, Stockholm, June, 1966; p. 165.
Male Wistar strain rats (Royal Hart Farms) averaging approximately 250 grams in weight were fastened to rat boards in a supine position by means of canvas vests and limb ties. The femoral area was infiltrated subcutaneously with lidocaine and the iliac artery and vein were exposed and cannulated. Arterial blood pressure (systolic/diastolic) was recorded using a Statham P23 Db pressure transducer-Offner dynograph system. To obtain a stable blood pressure, the animals were anesthetized before use with pentobarbital, 30 mg./kg. of body weight intravenously, and also were given hexamethonium bitartrate, 2 mg./kg., of body weight intravenously. The test compounds were prepared by ultrasonic dispersion in a saline-Tween 80 vehicle. A constant intravenous dose volume of 0.5 ml. was administered and test doses ranged from 0.1 to 10.0 mg./kg. of body weight. Increasing or decreasing doses were selected depending on the dose response obtained. In Table I below are set forth the minimal doses required to produce a decrease of about 10 mm. in diastolic blood pressure for typical compounds of the present invention.

[1] = test system: Streptococcus pyogenes C 203; assay: agar-dilution streak-plate antibacterial assay (8); type: cell-based; settings: C203, read-out: Minimal inhibitory conc.
Experimental: The novel compounds of the present invention are also useful as antimicrobial agents. […] In this assay, the compounds to be tested are made up to contain 2.5 mg. of test compound per milliliter of solution. Observing sterile techniques, two-fold serial dilutions are made of each test solution. One milliliter of each of the original solutions and of each of the serial dilutions is then added to 9 ml. of warm sterile nutrient agar capable of supporting growth of the bacterial test cultures. A second set of agar dilutions is prepared identical to the first except that the nutrient agar is designed to support the growth of the fungal test cultures. […] The test bacteria and yeast-like fungi are prepared for use by growing in broth overnight. The spores of the filamentous fungi are harvested from mature agar slant cultures and are suspended in sterile physiological saline solution. A loopful of each of the resulting live suspensions is then, still employing sterile techniques, streaked upon the surfaces of each of the agar plates and the resulting streaked plates are then incubated. After an appropriate period of time, each of the streaks on each of the plates is inspected visually and the extent, if any, of bacterial or fungal growth is noted. The minimal inhibitory concentration (expressed in micrograms per milliliter) is defined as the concentration of test compound causing complete inhibition of growth of any particular organism. In a representative operation, and merely by way of illustration, the minimal inhibitory concentration of typical compounds of the present invention against a variety of test organisms as determined in the above-described assay are set forth in Tables II and III below: […]

[2] = test system: basal gastric acid secretion; assay: inhibition of basal gastric acid secretion (acute gastric fistula rat); type: in vivo, Female Sprague-Dawley rats; settings: 10 mg./kg. intraduodenal
Experimental: Inhibition of basal gastric acid secretion was determined in the acute gastric fistula rat as follows. Female Sprague-Dawley rats (Charles River Laboratories) weighing 140-160 grams are fasted in individual cages for 18-24 hours. The rats are then lightly anesthetized with ether and their front teeth extracted to avoid destruction of the plastic cannula. A midline incision is then made and the stomach and duodenum exposed. A flanged polyvinyl tube is inserted into the fundic portion of the stomach and secured with a purse string suture line using 4-0 Mersilene. The rat is then dosed by injection of the compound into the duodenum (1.0 ml. per 100 grams body weight). After dosing, the abdominal wall and skin are closed using metal wound clips. The rat is replaced in a cage containing a longitudinal slit to allow the polyvinyl tube to hang freely. An 8 ml. plastic collecting tube is attached to the flanged cannula and hangs freely below the cage. The first 30 minute sample is discarded designating this time as zero. The collecting tube is attached again and samples removed at the end of 60 and 120 minutes. The hourly samples are then transferred to a 15 ml. centrifuge tube and centrifuged for 5-10 minutes. Total and sediment volume are then recorded with the supernatant volume being used as volume of secretion. A 1 ml. or less aliquot is then removed and placed in a 50 ml. beaker containing 10 ml. of distilled water. This sample is then titrated using 0.01N NaOH to pH 7.0 using a Beckman zeromatic pH meter. Volume, titratable acidity (meq/L) and total acid output (μ eq/hour) are recorded. Percent inhibition is determined by comparison with the appropriate control. Groups of three rats were used. All compounds are administered in vehicle (0.5% methocel, 0.4% Tween 80, saline) at a constant volume of 1 ml./100 gram rat. Samples were sonicated with care to prevent overheating.

Row | SMILES | muscle contraction (gerbil ascending colon) | minimal effective dose (diastolic blood pressure) [mg/kg] | MIC [1] [µg/mL] | % Inhibition after 120 minutes, Total Acid Output [2] [%] | % Inhibition after 120 minutes, Total Acidity [2] [%]
1 | CCCCC[C@H](O)/C=C/[C@H]1[C@H](O)CC(=O)[C@@H]1CCCCCCC(=O)O (relative stereo) [dl-PGE1, prostaglandin-E1] | maximal muscle contraction |  |  |  | 
2 | CCCCCC/C=C/[C@H]1CCC(=O)[C@@H]1CCCCCCC(=O)Nc1cccnc1 (relative stereo) [N-(pyridyl-3)-9-oxo-13-trans-prostenamide] |  | 2 to 8 | 5 (≈ 12.5 µM) | 54 | 30
3 | CCCCCC/C=C/[C@H]1CCC(=O)[C@@H]1CCCCCCC(=O)N(C(=O)Nc1ccc(N(C)C)cc1)c1ccc(N(C)C)cc1 (relative stereo) [4,4'-bis(dimethylamino)-N-{7-[trans-2-(1-octenyl)-5-oxocyclopentyl]-heptanoyl}carbanilide] |  |  |  | 72 | 60
